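GI50 is the concentration that inhibits growth by half. TGI marks complete inhibition of growth.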
Key:
Assay in all cases: inhibition of tumour cell growth, NCI panel, 384-well format
OVCAR-8 ovarian = tested on: OVCAR-8 ovarian
SF-295 CNS = tested on: SF-295 CNS
SN12C renal = tested on: SN12C renal
T-47D breast = tested on: T-47D breast
SK-MEL-28 melanoma = tested on: SK-MEL-28 melanoma
OVCAR-5 ovarian = tested on: OVCAR-5 ovarian
NCI-H522 lung = tested on: NCI-H522 lung
RPMI-8226 leukemia = tested on: RPMI-8226 leukemia
DU-145 prostate = tested on: DU-145 prostate
SNB-19 CNS = tested on: SNB-19 CNS
SF-539 CNS = tested on: SF-539 CNS
HS 578T breast = tested on: HS 578T breast
SF-268 CNS = tested on: SF-268 CNS
HOP-92 NSCLC = tested on: HOP-92 NSCLC
NCI-H226 lung = tested on: NCI-H226 lung
UACC-62 melanoma = tested on: UACC-62 melanoma
NCI-H322M lung = tested on: NCI-H322M lung
IGROV1 ovarian = tested on: IGROV1 ovarian
ACHN renal = tested on: ACHN renal
CCRF-CEM leukemia = tested on: CCRF-CEM leukemia
PC-3 prostate = tested on: PC-3 prostate
TK-10 renal = tested on: TK-10 renal
K-562 leukemia = tested on: K-562 leukemia
MCF7 breast = tested on: MCF7 breast
UACC-257 melanoma = tested on: UACC-257 melanoma
OVCAR-4 ovarian = tested on: OVCAR-4 ovarian
EKVX NSCLC = tested on: EKVX NSCLC
OVCAR-3 ovarian = tested on: OVCAR-3 ovarian
COLO 205 colon = tested on: COLO 205 colon
M14 melanoma = tested on: M14 melanoma
RXF 393 renal = tested on: RXF 393 renal
MDA-MB-435 melanoma = tested on: MDA-MB-435 melanoma
MDA-MB-231 breast = tested on: MDA-MB-231 breast
BT-549 breast = tested on: BT-549 breast
MOLT-4 leukemia = tested on: MOLT-4 leukemia
LOX IMVI melanoma = tested on: LOX IMVI melanoma
SR leukemia = tested on: SR leukemia
HOP-62 NSCLC = tested on: HOP-62 NSCLC
SW-620 colon = tested on: SW-620 colon
UO-31 renal = tested on: UO-31 renal
MDA-MB-468 breast = tested on: MDA-MB-468 breast
A498 renal = tested on: A498 renal
NCI/ADR-RES ovarian = tested on: NCI/ADR-RES ovarian
NCI-H460 NSCLC = tested on: NCI-H460 NSCLC
HT29 colon = tested on: HT29 colon
786-0 renal = tested on: 786-0 renal
SK-OV-3 ovarian = tested on: SK-OV-3 ovarian
HL-60(TB) leukemia = tested on: HL-60(TB) leukemia
SK-MEL-5 melanoma = tested on: SK-MEL-5 melanoma
SNB-75 CNS = tested on: SNB-75 CNS
CAKI-1 renal = tested on: CAKI-1 renal
A549 NSCLC = tested on: A549 NSCLC
MALME-3M melanoma = tested on: MALME-3M melanoma
HCT-15 colon = tested on: HCT-15 colon
KM12 colon = tested on: KM12 colon
NCI-H23 lung = tested on: NCI-H23 lung
HCC-2998 colon = tested on: HCC-2998 colon

For Cn1c(=O)c2c(ncn2CC(=O)Nc2ccc(-c3ccccc3)nn2)n(C)c1=O, the GI50 (OVCAR-8 ovarian) was over 100 µM, the TGI (OVCAR-8 ovarian) was over 100 µM and the GI50 (SF-295 CNS) was over 100 µM. For the same compound, the TGI (SF-295 CNS) was over 100 µM, the GI50 (SN12C renal) was over 100 µM and the TGI (SN12C renal) was over 100 µM. It also gave a GI50 (T-47D breast) of 36.3 µM, a TGI (T-47D breast) of over 100 µM and a GI50 (SK-MEL-28 melanoma) of over 100 µM. It also gave a TGI (SK-MEL-28 melanoma) of over 100 µM, a GI50 (OVCAR-5 ovarian) of over 100 µM and a TGI (OVCAR-5 ovarian) of over 100 µM. It also gave a GI50 (NCI-H522 lung) of over 100 µM, a TGI (NCI-H522 lung) of over 100 µM and a GI50 (RPMI-8226 leukemia) of over 100 µM. The TGI (RPMI-8226 leukemia) was over 100 µM, the GI50 (DU-145 prostate) was over 100 µM and the TGI (DU-145 prostate) was over 100 µM. The GI50 (SNB-19 CNS) was over 100 µM, the TGI (SNB-19 CNS) was over 100 µM and the GI50 (SF-539 CNS) was over 100 µM. It also gave a TGI (SF-539 CNS) of over 100 µM, a GI50 (HS 578T breast) of 72.9 µM and a TGI (HS 578T breast) of over 100 µM. The GI50 (SF-268 CNS) was over 100 µM, the TGI (SF-268 CNS) was over 100 µM and the GI50 (HOP-92 NSCLC) was over 100 µM. For the same compound, the TGI (HOP-92 NSCLC) was over 100 µM, the GI50 (NCI-H226 lung) was over 100 µM and the TGI (NCI-H226 lung) was over 100 µM. For the same compound, the GI50 (UACC-62 melanoma) was 74.6 µM, the TGI (UACC-62 melanoma) was over 100 µM and the GI50 (NCI-H322M lung) was over 100 µM. The TGI (NCI-H322M lung) was over 100 µM, the GI50 (IGROV1 ovarian) was over 100 µM and the TGI (IGROV1 ovarian) was over 100 µM. For the same compound, the GI50 (ACHN renal) was over 100 µM, the TGI (ACHN renal) was over 100 µM and the GI50 (CCRF-CEM leukemia) was 60.2 µM. The TGI (CCRF-CEM leukemia) was over 100 µM, the GI50 (PC-3 prostate) was over 100 µM and the TGI (PC-3 prostate) was over 100 µM. It also gave a GI50 (TK-10 renal) of over 100 µM, a TGI (TK-10 renal) of over 100 µM and a GI50 (K-562 leukemia) of over 100 µM. The TGI (K-562 leukemia) was over 100 µM, the GI50 (MCF7 breast) was over 100 µM and the TGI (MCF7 breast) was over 100 µM. For the same compound, the GI50 (UACC-257 melanoma) was 49.8 µM, the TGI (UACC-257 melanoma) was over 100 µM and the GI50 (OVCAR-4 ovarian) was 25.8 µM. For the same compound, the TGI (OVCAR-4 ovarian) was over 100 µM, the GI50 (EKVX NSCLC) was over 100 µM and the TGI (EKVX NSCLC) was over 100 µM. It also gave a GI50 (OVCAR-3 ovarian) of over 100 µM, a TGI (OVCAR-3 ovarian) of over 100 µM and a GI50 (COLO 205 colon) of over 100 µM. It also gave a TGI (COLO 205 colon) of over 100 µM, a GI50 (M14 melanoma) of over 100 µM and a TGI (M14 melanoma) of over 100 µM. For the same compound, the GI50 (RXF 393 renal) was 27.1 µM, the TGI (RXF 393 renal) was over 100 µM and the GI50 (MDA-MB-435 melanoma) was over 100 µM. It also gave a TGI (MDA-MB-435 melanoma) of over 100 µM, a GI50 (MDA-MB-231 breast) of 70.8 µM and a TGI (MDA-MB-231 breast) of over 100 µM. It also gave a GI50 (BT-549 breast) of over 100 µM, a TGI (BT-549 breast) of over 100 µM and a GI50 (MOLT-4 leukemia) of over 100 µM. For the same compound, the TGI (MOLT-4 leukemia) was over 100 µM, the GI50 (LOX IMVI melanoma) was over 100 µM and the TGI (LOX IMVI melanoma) was over 100 µM. For the same compound, the GI50 (SR leukemia) was 21.6 µM, the TGI (SR leukemia) was over 100 µM and the GI50 (HOP-62 NSCLC) was over 100 µM. It also gave a TGI (HOP-62 NSCLC) of over 100 µM, a GI50 (SW-620 colon) of over 100 µM and a TGI (SW-620 colon) of over 100 µM. The GI50 (UO-31 renal) was over 100 µM, the TGI (UO-31 renal) was over 100 µM and the GI50 (MDA-MB-468 breast) was 15.9 µM. It also gave a TGI (MDA-MB-468 breast) of 96.4 µM, a GI50 (A498 renal) of over 100 µM and a TGI (A498 renal) of over 100 µM. It also gave a GI50 (NCI/ADR-RES ovarian) of over 100 µM, a TGI (NCI/ADR-RES ovarian) of over 100 µM and a GI50 (NCI-H460 NSCLC) of over 100 µM. It also gave a TGI (NCI-H460 NSCLC) of over 100 µM, a GI50 (HT29 colon) of over 100 µM and a TGI (HT29 colon) of over 100 µM. The GI50 ([…]-0 renal) was over 100 µM, the TGI (786-0 renal) was over 100 µM and the GI50 (SK-OV-3 ovarian) was over 100 µM. The TGI (SK-OV-3 ovarian) was over 100 µM, the GI50 (HL-60(TB) leukemia) was 6.01 µM and the TGI (HL-60(TB) leukemia) was over 100 µM. For the same compound, the GI50 (SK-MEL-5 melanoma) was 3.44 µM, the TGI (SK-MEL-5 melanoma) was over 100 µM and the GI50 (SNB-75 CNS) was over 100 µM. It also gave a TGI (SNB-75 CNS) of over 100 µM, a GI50 (CAKI-1 renal) of over 100 µM and a TGI (CAKI-1 renal) of over 100 µM. For the same compound, the GI50 (A549 NSCLC) was over 100 µM, the TGI (A549 NSCLC) was over 100 µM and the GI50 (MALME-3M melanoma) was over 100 µM. It also gave a TGI (MALME-3M melanoma) of over 100 µM, a GI50 (HCT-15 colon) of over 100 µM and a TGI (HCT-15 colon) of over 100 µM. It also gave a GI50 (KM12 colon) of over 100 µM, a TGI (KM12 colon) of over 100 µM and a GI50 (NCI-H23 lung) of over 100 µM. It also gave a TGI (NCI-H23 lung) of over 100 µM, a GI50 (HCC-2998 colon) of over 100 µM and a TGI (HCC-2998 colon) of over 100 µM.

Source: PubChem BioAssay (NCI)
